What follows are compounds tested against human NaV1.8 ion channel (Homo sapiens (Human), UniProt Q9Y5Y9) (assay: Compound inhibition activity on human NaV1.8 ion channel in HEK293 cells (whole-cell patch clamp)). Conditions: 100 nm concentration; HEK293 cells, resting protocol.
Format: cell-based
Protocol: Test Case 1: Compound Inhibition Activity on Human NaV1.8 Ion Channel in HEK293 Cells
The final concentrations of the test compounds are prepared on the same day and then dissolved in extracellular solution. […] The intracellular solution (mM) contains: Aspartic acid, 140; MgCl2, 2; EGTA 11; HEPES, 10; pH 7.2 (CsOH titration). All test solutions contain 1 μM TTX.
The test solution are stored at a concentration of 3 mM in dimethyl sulfoxide (DMSO). The solutions will be dissolved in extracellular solution on the day of testing and prepared to the required concentration.
All experiments were performed at room temperature. Each cell itself is taken as the corresponding control.
At least one cell is tested per concentration.
HEK293 cell steady expressing NaV1.8 ion channel.
The intracellular fluid (mM) contains: Aspartic acid, 140; MgCl2, 2; EGTA 11; HEPES, 10; pH 7.2 (CsOH titration). […] Electrodes are drawn with PC-10 (Narishige, Japan). Recording is performed with whole-cell diaphragm clamp.
The cells are clamped at −80 mV and then depolarized to 10 mV with a sustained 10 ms square wave to give a Nav1.8 current. This procedure is repeated every 5 seconds.

Sequence of human NaV1.8 ion channel (Q9Y5Y9 whole entry): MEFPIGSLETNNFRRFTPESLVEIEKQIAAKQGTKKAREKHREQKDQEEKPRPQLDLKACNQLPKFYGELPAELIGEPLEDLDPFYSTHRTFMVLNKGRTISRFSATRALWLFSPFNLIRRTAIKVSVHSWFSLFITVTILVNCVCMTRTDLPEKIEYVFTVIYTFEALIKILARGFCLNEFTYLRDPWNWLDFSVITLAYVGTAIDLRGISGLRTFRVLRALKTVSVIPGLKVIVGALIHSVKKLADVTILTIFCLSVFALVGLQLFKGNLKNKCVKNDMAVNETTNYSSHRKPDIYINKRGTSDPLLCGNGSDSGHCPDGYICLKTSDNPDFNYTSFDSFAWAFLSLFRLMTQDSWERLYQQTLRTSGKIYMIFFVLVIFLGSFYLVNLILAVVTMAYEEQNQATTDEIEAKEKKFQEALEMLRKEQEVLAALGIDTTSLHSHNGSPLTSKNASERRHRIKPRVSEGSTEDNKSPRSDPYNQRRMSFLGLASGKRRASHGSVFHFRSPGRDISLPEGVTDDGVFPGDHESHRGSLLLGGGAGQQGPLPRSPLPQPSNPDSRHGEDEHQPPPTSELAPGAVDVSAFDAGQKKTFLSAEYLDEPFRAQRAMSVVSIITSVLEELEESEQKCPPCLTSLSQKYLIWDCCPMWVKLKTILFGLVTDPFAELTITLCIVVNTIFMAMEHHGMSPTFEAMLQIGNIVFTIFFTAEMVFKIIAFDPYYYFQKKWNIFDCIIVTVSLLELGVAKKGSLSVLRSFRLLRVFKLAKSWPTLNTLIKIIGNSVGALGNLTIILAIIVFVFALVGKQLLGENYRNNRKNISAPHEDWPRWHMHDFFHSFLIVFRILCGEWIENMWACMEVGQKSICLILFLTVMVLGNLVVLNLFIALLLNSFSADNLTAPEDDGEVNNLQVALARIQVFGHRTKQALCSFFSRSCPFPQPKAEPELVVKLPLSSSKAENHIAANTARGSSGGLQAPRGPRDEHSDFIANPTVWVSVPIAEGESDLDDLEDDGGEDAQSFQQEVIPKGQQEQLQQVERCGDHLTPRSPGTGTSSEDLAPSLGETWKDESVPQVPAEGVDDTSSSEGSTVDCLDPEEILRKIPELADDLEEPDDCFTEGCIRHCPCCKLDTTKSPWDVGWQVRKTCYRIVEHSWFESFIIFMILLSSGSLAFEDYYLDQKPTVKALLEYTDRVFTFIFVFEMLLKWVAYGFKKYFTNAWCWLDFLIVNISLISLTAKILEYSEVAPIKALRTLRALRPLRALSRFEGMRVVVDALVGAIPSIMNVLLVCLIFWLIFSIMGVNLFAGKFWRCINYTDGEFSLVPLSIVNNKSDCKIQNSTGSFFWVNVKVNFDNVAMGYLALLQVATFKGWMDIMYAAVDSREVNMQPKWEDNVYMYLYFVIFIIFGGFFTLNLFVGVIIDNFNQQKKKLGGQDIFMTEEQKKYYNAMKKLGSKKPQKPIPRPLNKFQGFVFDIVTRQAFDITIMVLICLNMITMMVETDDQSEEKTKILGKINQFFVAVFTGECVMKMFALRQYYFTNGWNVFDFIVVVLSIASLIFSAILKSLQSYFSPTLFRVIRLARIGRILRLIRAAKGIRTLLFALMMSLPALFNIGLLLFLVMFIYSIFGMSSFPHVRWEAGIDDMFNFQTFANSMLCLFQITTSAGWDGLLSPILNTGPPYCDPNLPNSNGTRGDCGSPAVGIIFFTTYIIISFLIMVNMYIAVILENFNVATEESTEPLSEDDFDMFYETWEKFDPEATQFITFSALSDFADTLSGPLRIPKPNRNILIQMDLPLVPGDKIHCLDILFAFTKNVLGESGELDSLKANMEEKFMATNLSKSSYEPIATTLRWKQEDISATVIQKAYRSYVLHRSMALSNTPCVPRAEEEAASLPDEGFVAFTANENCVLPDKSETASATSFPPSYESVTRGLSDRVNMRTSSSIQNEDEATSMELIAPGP

Compound	Inhibition ratio of Nav1.8 (Activity of inhibition)
Cc1cc(F)ccc1Oc1ccc(C(F)(F)F)cc1C(=O)Nc1ccc(F)c(CC(N)C(N)=O)c1 (centres unmarked) [Example 17, N-(3-(2,3-Diamino-3-oxopropyl)-4-fluorophenyl)-2-(4-fluoro-2-methylphenoxy)-5-(trifluoromethyl) benzamide]	D (D < 20)
N-(3-(1-amino-3-fluoropropyl)-4-fluorophenyl)-4-cyclopropyl-2-(4-fluoro-2-methyl phenoxy)-5-(trifluoromethyl) benzamide [Example 21]	B (80 > B >= 50)
Cc1cc(F)ccc1Oc1cc(C2CC2)c(C(F)(F)F)cc1C(=O)Nc1ccc(F)c(C(N)CCO)c1 (centres unmarked) [Example 3, N-(3-(1-Amino-3-hydroxypropyl)-4-fluorophenyl)-4-cyclopropyl-2-(4-fluoro-2-methylphenoxy)-5-(trifluoromethyl) benzamide]	A (A >= 80)

Same assay, conditions: 100 nm concentration; HEK293 cells, resting protocol; read-out: Inhibition ratio of Nav1.8 (Activity of inhibition)

Compound	inhibition at 0.1 µM
COCCNC(=O)C(N)c1cc(NC(=O)c2cc(C(F)(F)F)c(C3CC3)cc2Oc2ccc(F)cc2C)ccc1F (centres unmarked) [Example 44]	50 to 80%
Cc1cc(F)ccc1Oc1ccc(C(F)(F)F)cc1C(=O)Nc1ccc(F)c(C(N)CC(=O)O)c1 (centres unmarked) [Example 2, 3-Amino-3-(2-fluoro-5-(2-(4-fluoro-2-methylphenoxy)-5-(trifluoromethyl)benzamido)phenyl) propanoic acid]	< 20%
Cc1cc(F)ccc1Oc1ccc(C(F)(F)F)cc1C(=O)Nc1ccc(F)c(C2NCCNC2=O)c1 (centres unmarked) [Example 18, 2-(4-Fluoro-2-methylphenoxy)-N-(4-fluoro-3-(3-oxopiperazin-2-yl)phenyl)-5-(trifluoromethyl) benzamide]	< 20%

The remaining lines, values ahead:

inhibition at 0.1 µM	Compound
> 80%	Cc1cc(F)ccc1Oc1cc(C2CC2)c(C(F)(F)F)cc1C(=O)Nc1ccc(F)c(C(N)CC(N)=O)c1 (centres unmarked) [Example 37]
50 to 80%	CC(=O)NC(CCO)c1cc(NC(=O)c2cc(C(F)(F)F)c(C3CC3)cc2Oc2ccc(F)cc2C)ccc1F (centres unmarked) [Example 6, N-(3-(1-Acetylamino-3-hydroxypropyl)-4-fluorophenyl)-4-cyclopropyl-2-(4-fluoro-2-methylphenoxy)-5-(trifluoromethyl) benzamide]
> 80%	Cc1cc(F)ccc1Oc1cc(C2CC2)c(C(F)(F)F)cc1C(=O)Nc1ccnc(C(N)CC(N)=O)c1 (centres unmarked) [Example 35]
50 to 80%	COCCC(N)c1cc(NC(=O)c2cc(C(F)(F)F)c(C3CC3)cc2Oc2ccc(F)cc2C)ccc1F (centres unmarked) [Example 5, N-(3-(1-Amino-3-methoxypropyl)-4-fluorophenyl)-4-cyclopropyl-2-(4-fluoro-2-methylphenoxy)-5-(trifluoromethyl) benzamide]
50 to 80%	Cc1cc(F)ccc1Oc1cc(C2CC2)c(C(F)(F)F)cc1C(=O)Nc1ccc(F)c(C(N)C(=O)NCCO)c1 (centres unmarked) [Example 43]
> 80%	CNC(CCO)c1cc(NC(=O)c2cc(C(F)(F)F)c(C3CC3)cc2Oc2ccc(F)cc2C)ccc1F (centres unmarked) [Example 7, 4-Cyclopropyl-2-(4-fluoro-2-methylphenoxy)-N-(4-fluoro-3-(3-hydroxy-1-(methylamino)propyl)phenyl)-5-(trifluoromethyl) benzamide]

Same assay, conditions: 100 nm concentration; HEK293 cells, resting protocol; read-out: Inhibition ratio of compounds against Nav1.8 (Activity of inhibition)

Compound	inhibition at 0.1 µM
Cc1cc(F)ccc1Oc1cc(C2CC2)c(C(F)(F)F)cc1C(=O)Nc1ccc(F)c(OCC(O)CNC(=O)CO)c1 (centres unmarked) [Example 65, 4-Cyclopropyl-2-(4-fluoro-2-methylphenoxy)-N-(4-fluoro-3-(2-hydroxy-3-(2-hydroxyacetylamino)propoxy)phenyl)-5-(trifluoromethyl) benzamide]	> 80%
Cc1cc(F)ccc1Oc1cc(C2CC2)c(C(F)(F)F)cc1C(=O)Nc1ccc(F)c(OCC(O)CNC(C)C(F)(F)F)c1 (centres unmarked) [Example 91]	20 to 50%
Cc1cc(F)ccc1Oc1cc(C2CC2)c(C(F)(F)F)cc1C(=O)Nc1ccc(F)c(C(CCO)NS(C)(=O)=O)c1 (centres unmarked) [Example 73]	20 to 50%
Cc1cc(F)ccc1Oc1cc(C2CC2)c(C(F)(F)F)cc1C(=O)Nc1cnnc(OC[C@@H](O)CO)c1 [Example 111]	50 to 80%
Cc1cc(F)ccc1Oc1cc(C2CC2)c(C(F)(F)F)cc1C(=O)Nc1ccc(F)c(OCC(O)CNc2ccc(F)cc2)c1 (centres unmarked) [Example 96]	20 to 50%
Cc1cc(F)ccc1Oc1cc(C(F)(F)F)ccc1C(=O)Nc1ccnc(OC[C@H](O)CO)c1 [Example 108]	50 to 80%
Cc1cc(F)ccc1Oc1cc(C(F)(F)F)c(Cl)cc1C(=O)Nc1ccc(F)c(OC[C@@H](O)CNC(=O)CO)c1 [Example 118]	50 to 80%
Cc1cc(F)ccc1Oc1cc(C2CC2)c(C(F)(F)F)cc1C(=O)Nc1ccc(F)c(OCC(O)CNc2nccs2)c1 (centres unmarked) [Example 98]	> 80%
Cc1cc(F)ccc1Oc1cc(C2CC2)c(C(F)(F)F)cc1C(=O)Nc1ccc(F)c(OC2CC(N)C2)c1 (centres unmarked) [Example 58, N-(3-(3-aminocyclobutoxy)-4-fluorophenyl)-4-cyclopropyl-2-(4-fluoro-2-methylphenoxy)-5-(trifluoromethyl) benzamide]	50 to 80%
Cc1cc(F)ccc1Oc1cc(C(F)(F)F)ccc1C(=O)Nc1ccc(F)c(OCC(O)CNC(=O)CO)c1 (centres unmarked) [Example 107]	50 to 80%
Cc1cc(F)ccc1Oc1cc(C2CC2)c(C(F)(F)F)cc1C(=O)Nc1ccc(F)c(C(CCO)N2CCCC2)c1 (centres unmarked) [Example 72]	50 to 80%
Cc1cc(F)ccc1Oc1cc(C2CC2)c(C(F)(F)F)cc1C(=O)Nc1ccc(F)c(OCC(O)CNc2cnn(C)c2)c1 (centres unmarked) [Example 97]	50 to 80%
Cc1cc(F)ccc1Oc1cc(C2CC2)c(C(F)(F)F)cc1C(=O)Nc1ccc(F)c(OCC(O)CNCC(F)(F)F)c1 (centres unmarked) [Example 87]	50 to 80%
COc1ccc(NCC(O)COc2cc(NC(=O)c3cc(C(F)(F)F)c(C4CC4)cc3Oc3ccc(F)cc3C)ccc2F)cc1 (centres unmarked) [Example 95]	20 to 50%
COc1cc(OC(F)(F)F)ccc1Oc1cc(C(F)(F)F)c(Cl)cc1C(=O)Nc1ccnc(OC[C@H](O)CO)c1 [Example 121]	> 80%
Cc1cc(F)ccc1Oc1cc(C2CC2)c(C(F)(F)F)cc1C(=O)Nc1cnnc(OCC(O)CO)c1 (centres unmarked) [Example 102]	50 to 80%

Results, then the compound that gave them:

inhibition at 0.1 µM	Compound
> 80%	Cc1cc(F)ccc1Oc1cc(C2CC2)c(C(F)(F)F)cc1C(=O)Nc1cccc(OCC(O)CNC(C)C)c1 (centres unmarked) [Example 82]
> 80%	Cc1cc(F)ccc1Oc1cc(C2CC2)c(C(F)(F)F)cc1C(=O)Nc1ccc(F)c(C(C)CC(N)=O)c1 (centres unmarked) [Example 48, N-(3-(4-Amino-4-oxobutan-2-yl)-4-fluorophenyl)-4-cyclopropyl-2-(4-fluoro-2-methylphenoxy)-5-(trifluoromethyl) benzamide]
50 to 80%	Cc1cc(F)ccc1Oc1cc(C2CC2)c(C(F)(F)F)cc1C(=O)Nc1ccc(F)c(OCC(O)CO)c1 (centres unmarked) [Example 90]
50 to 80%	Cc1cc(F)ccc1Oc1cc(C2CC2)c(C(F)(F)F)cc1C(=O)Nc1ccc(F)c(OC2CC(O)C2)c1 (centres unmarked) [Example 71]
> 80%	Cc1cc(F)ccc1Oc1cc(C2CC2)c(C(F)(F)F)cc1C(=O)Nc1ccc(F)c(C(N)CCNC(C)(C)C)c1 (centres unmarked) [Example 66]
50 to 80%	Cc1cc(F)ccc1Oc1cc(C2CC2)c(C(F)(F)F)cc1C(=O)Nc1ccc(F)c(C(C)CC(O)CNC(C)(C)C)c1 (centres unmarked) [Example 54, N-(3-(5-(tert-butylamino)-4-hydroxypentan-2-yl)-4-fluorophenyl)-4-cyclopropyl-2-(4-fluoro-2-methylphenoxy)-5-(trifluoromethyl) benzamide]
> 80%	Cc1cc(F)ccc1Oc1cc(C2CC2)c(C(F)(F)F)cc1C(=O)Nc1ccc(F)c(C(C)C(O)CNC(C)(C)C)c1 (centres unmarked) [Example 55, N-(3-(4-(tert-butylamino)-3-hydroxybutan-2-yl)-4-fluorophenyl)-4-cyclopropyl-2-(4-fluoro-2-methylphenoxy)-5-(trifluoromethyl) benzamide]
20 to 50%	Cc1cc(F)ccc1Oc1cc(C2CC2)c(C(F)(F)F)cc1C(=O)Nc1ccnc(C(F)(F)F)c1 [Example 69]
20 to 50%	Cc1cc(F)ccc1Oc1cc(C2CC2)c(C(F)(F)F)cc1C(=O)Nc1ccnc(OCC(O)CNC(C)(C)C)c1 (centres unmarked) [Example 64, N-(2-(3-(tert-butylamino)-2-hydroxypropoxy)pyridin-4-yl)-4-cyclopropyl-2-(4-fluoro-2-methylphenoxy)-5-(trifluoromethyl) benzamide]
50 to 80%	Cc1cc(F)ccc1Oc1cc(C2CC2)c(C(F)(F)F)cc1C(=O)Nc1ccc(F)c(N)c1 [Example 52, N-(3-Amino-4-fluorophenyl)-4-cyclopropyl-2-(4-fluoro-2-methylphenoxy)-5-(trifluoromethyl) benzamide]
20 to 50%	Cc1cc(F)ccc1Oc1cc(C2CC2)c(C(F)(F)F)cc1C(=O)Nc1ccnc(C(C)(C)O)c1 [Example 70]
50 to 80%	Cc1cc(F)ccc1Oc1cc(C2CC2)c(C(F)(F)F)cc1C(=O)Nc1ccc(F)c(OCc2ncc[nH]2)c1 [Example 74]

Same assay, conditions: HEK293, read-out: Inhibition ratio of Nav1.8 (Activity of inhibition)

Compound	inhibition at 0.1 µM
Cc1cc(F)ccc1Oc1ccc(C(F)(F)F)cc1C(=O)Nc1ccc(F)c(C(N)C(C)C(N)=O)c1 (centres unmarked) [Example 4, N-(3-(1,3-Diamino-2-methyl-3-oxopropyl)-4-fluorophenyl)-2-(4-fluoro-2-methylphenoxy)-5-(trifluoromethyl) benzamide]	50 to 80%

— US20230303497A1, “BENZYLAMINE OR BENZYL ALCOHOL DERIVATIVE AND USES THEREOF” (CHENGDU HYPERWAY PHARMACEUTICALS CO., LTD, priority 2020, published 2023)
